These results are taken from patent US10221197B2, “Phosphatidylinositol 3-kinase inhibitors” (Gilead Sciences, Inc., priority 2014, dated 2019).

What all share (assay type): biochemical
One test addresses PI3Kδ (Homo sapiens (Human), UniProt O00329). Briefly: TR-FRET enzymatic assay of PI3K isoforms (PI3Kδ). Conditions: 2×Km ATP, 2 μM PIP2, incubated for 30 minutes at 25° C., read-out: δ IC50. The method, then: (§1) The compounds of formula (I) were characterized for their enzymatic activity against the PI3K isoforms. Certain compounds of the present application, including certain compounds of formula (II) and (III) were also characterized for their enzymatic activity against PI3K isoforms. The activities were measured using a time-resolved fluorescence resonance energy transfer (TR-FRET) assay.
In general terms: In TR-FRET formats the signal depends on donor and acceptor labels being close together.

A further test has as its target PI3Kγ (Homo sapiens (Human), UniProt P48736). Briefly: TR-FRET enzymatic assay of PI3K isoforms (PI3Kγ). The conditions noted are these: TR-FRET, 2×Km ATP, 2 μM PIP2, PI3Kγ at 2 nM, incubated for 30 minutes at 25° C.; read-out: γ IC50. The protocol: as §1
A further test has as its target PI3Kβ (Homo sapiens (Human), UniProt P42338). Briefly: TR-FRET enzymatic assay of PI3K isoforms (PI3Kβ). Conditions: TR-FRET, 2×Km ATP, 2 μM PIP2, incubated for 30 minutes at 25° C.; read-out: β IC50. The method, then: as §1

Sequence of PI3Kδ (O00329 whole entry, canonical isoform): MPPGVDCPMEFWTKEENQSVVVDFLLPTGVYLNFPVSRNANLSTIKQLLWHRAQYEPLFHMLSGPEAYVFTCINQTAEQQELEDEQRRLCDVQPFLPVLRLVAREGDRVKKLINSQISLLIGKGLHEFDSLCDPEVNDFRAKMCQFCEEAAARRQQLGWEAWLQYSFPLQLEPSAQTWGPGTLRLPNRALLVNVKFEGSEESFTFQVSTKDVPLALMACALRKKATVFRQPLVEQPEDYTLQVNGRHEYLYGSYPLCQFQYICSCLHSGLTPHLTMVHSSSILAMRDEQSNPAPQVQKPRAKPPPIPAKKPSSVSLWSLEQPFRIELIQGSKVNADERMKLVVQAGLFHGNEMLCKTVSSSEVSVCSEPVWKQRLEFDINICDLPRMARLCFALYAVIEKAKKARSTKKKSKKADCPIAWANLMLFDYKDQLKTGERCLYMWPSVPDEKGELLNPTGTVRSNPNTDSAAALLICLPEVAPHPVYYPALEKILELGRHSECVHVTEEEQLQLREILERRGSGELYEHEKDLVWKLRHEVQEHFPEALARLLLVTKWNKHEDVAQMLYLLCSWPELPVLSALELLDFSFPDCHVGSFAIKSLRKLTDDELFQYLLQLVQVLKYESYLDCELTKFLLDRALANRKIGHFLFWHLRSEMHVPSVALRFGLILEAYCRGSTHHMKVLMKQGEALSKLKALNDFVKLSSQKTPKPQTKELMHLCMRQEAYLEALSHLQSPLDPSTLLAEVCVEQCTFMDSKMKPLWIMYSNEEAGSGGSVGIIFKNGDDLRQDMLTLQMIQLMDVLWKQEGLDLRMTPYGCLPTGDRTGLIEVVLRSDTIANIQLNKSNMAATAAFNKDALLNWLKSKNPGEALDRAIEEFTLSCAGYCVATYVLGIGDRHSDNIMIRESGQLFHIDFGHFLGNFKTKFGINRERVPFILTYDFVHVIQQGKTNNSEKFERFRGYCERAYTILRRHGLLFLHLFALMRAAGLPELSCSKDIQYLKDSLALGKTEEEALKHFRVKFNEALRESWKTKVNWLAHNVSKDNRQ
Sequence of PI3Kδ (P27986 whole entry partner, canonical isoform): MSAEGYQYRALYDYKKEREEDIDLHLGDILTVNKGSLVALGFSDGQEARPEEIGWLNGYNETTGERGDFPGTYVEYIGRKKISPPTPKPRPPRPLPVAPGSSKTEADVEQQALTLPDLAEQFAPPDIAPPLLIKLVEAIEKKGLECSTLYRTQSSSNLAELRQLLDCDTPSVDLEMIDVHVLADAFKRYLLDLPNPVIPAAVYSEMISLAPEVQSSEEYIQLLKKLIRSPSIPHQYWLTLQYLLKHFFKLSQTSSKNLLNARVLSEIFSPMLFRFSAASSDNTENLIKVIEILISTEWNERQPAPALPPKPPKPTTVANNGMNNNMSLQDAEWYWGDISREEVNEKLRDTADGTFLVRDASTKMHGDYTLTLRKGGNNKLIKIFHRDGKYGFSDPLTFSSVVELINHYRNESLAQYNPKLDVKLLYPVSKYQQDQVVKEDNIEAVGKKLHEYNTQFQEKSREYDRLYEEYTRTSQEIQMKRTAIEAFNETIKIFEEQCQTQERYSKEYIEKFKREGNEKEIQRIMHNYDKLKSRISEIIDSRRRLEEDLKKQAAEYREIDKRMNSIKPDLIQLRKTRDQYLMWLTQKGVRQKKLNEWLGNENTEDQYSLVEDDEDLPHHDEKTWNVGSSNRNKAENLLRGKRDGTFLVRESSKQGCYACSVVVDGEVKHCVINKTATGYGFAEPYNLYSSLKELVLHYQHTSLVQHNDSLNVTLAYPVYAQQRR
Sequence of PI3Kβ (P42338 whole entry, canonical isoform): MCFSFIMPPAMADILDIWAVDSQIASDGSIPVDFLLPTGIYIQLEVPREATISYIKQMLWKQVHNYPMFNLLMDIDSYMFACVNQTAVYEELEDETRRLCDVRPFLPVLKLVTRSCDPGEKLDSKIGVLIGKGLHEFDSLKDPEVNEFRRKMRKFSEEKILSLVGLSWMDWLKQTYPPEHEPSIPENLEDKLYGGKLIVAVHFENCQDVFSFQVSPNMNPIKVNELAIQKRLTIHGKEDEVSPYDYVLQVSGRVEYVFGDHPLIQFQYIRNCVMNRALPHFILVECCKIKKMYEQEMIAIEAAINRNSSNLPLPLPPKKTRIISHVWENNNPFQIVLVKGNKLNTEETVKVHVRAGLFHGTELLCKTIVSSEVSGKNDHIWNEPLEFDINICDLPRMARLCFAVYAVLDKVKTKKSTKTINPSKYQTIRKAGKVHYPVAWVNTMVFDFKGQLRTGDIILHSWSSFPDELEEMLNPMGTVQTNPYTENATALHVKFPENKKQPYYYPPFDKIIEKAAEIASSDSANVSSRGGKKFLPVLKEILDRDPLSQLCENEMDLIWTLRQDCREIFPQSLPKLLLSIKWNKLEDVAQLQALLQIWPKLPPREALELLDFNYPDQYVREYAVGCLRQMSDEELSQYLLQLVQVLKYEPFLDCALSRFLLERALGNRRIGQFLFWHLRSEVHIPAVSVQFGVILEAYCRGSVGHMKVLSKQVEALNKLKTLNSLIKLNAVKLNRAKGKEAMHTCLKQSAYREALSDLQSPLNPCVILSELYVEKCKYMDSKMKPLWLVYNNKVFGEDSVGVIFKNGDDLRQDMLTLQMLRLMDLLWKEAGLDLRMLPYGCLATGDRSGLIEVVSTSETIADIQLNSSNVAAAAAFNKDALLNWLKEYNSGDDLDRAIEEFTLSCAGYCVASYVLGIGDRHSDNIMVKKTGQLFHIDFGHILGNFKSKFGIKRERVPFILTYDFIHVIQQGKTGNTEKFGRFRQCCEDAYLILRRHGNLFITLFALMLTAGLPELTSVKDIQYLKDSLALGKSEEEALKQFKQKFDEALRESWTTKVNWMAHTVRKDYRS
Sequence of PI3Kβ (P27986 whole entry partner, canonical isoform): as the sequence (P27986 whole entry partner, canonical isoform) above
Sequence of PI3Kγ (P48736 whole entry, canonical isoform): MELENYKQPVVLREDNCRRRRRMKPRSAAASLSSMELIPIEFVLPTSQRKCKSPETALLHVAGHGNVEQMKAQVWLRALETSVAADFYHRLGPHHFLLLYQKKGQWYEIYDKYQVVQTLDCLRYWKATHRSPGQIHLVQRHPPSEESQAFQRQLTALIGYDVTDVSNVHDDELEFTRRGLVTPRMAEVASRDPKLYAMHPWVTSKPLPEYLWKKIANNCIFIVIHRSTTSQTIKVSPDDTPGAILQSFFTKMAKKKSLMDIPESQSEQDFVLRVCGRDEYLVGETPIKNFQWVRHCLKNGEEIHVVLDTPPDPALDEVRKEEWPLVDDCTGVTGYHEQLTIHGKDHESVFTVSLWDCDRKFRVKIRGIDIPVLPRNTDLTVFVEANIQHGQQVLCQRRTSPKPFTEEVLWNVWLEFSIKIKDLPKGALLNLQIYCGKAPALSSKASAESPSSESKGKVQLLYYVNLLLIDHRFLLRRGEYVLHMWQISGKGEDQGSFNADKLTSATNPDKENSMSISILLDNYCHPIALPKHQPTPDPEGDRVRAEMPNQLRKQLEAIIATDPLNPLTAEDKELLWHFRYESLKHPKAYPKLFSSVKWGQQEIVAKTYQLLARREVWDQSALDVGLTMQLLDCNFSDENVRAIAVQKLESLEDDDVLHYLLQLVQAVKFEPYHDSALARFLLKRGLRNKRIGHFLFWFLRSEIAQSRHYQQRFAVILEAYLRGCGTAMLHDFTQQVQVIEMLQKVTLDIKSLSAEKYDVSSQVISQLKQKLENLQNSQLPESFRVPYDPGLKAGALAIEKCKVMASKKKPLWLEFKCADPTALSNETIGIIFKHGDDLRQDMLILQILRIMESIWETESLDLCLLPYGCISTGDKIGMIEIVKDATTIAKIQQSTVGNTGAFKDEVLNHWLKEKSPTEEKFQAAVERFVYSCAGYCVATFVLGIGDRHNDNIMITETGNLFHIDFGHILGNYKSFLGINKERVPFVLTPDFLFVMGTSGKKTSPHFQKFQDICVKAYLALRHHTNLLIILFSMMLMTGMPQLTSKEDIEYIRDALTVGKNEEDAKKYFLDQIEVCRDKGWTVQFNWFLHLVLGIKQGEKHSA
Sequence of PI3Kγ (Q8WYR1 whole entry partner, canonical isoform): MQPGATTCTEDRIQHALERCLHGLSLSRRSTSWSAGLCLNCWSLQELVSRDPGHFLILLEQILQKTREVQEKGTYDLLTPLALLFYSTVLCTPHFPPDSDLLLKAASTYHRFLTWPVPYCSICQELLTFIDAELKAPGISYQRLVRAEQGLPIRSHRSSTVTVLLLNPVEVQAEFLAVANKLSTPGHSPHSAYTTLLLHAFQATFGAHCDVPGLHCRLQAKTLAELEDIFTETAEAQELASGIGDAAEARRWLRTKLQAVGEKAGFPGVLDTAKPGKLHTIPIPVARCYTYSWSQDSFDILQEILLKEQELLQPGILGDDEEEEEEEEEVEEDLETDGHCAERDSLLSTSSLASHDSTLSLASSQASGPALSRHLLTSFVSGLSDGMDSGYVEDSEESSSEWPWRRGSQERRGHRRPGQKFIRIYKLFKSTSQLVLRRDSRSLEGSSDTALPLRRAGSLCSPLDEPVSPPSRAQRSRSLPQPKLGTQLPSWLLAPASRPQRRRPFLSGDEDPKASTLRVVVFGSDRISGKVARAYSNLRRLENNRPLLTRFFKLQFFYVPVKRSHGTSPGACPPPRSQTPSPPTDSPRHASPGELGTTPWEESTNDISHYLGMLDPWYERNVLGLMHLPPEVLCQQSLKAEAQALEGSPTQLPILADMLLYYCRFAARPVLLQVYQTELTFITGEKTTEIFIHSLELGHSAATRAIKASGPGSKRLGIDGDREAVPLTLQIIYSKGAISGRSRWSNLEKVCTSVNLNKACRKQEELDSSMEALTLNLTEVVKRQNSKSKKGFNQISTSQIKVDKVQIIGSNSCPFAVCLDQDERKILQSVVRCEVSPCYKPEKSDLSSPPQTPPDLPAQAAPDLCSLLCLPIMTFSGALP

As to `CONC(=O)Nc1cccc(-n2c([C@H](C)Oc3ncnc4scnc34)nc3cccc(Cl)c3c2=O)c1` [Compound 153, (S)-1-(3-(5-chloro-4-oxo-2-(1-(thiazolo[5,4-d]pyrimidin-7-yloxy)ethyl)quinazolin-3(4H)-yl)phenyl)-3-methoxyurea], the IC50 (as a rule, the concentration at which inhibition is half-maximal) amounted to 4 nM at PI3Kδ, 1600 nM at PI3Kγ and 48 nM at PI3Kβ.

On to `CC(Oc1ncnc2scnc12)c1nc2cccc(Cl)c2c(=O)n1-c1cccc(NC(=O)NCC(F)(F)F)c1` (stereo not drawn) [Compound 154, 1-(3-(5-chloro-4-oxo-2-(1-(thiazolo[5,4-d]pyrimidin-7-yloxy)ethyl)quinazolin-3(4H)-yl)phenyl)-3-(2,2,2-trifluoroethyl)urea], for which the IC50 at PI3Kδ is 5 nM; at PI3Kγ, 1400 nM; at PI3Kβ, 4 nM.

Consider `CC(Oc1ncnc2scnc12)c1nc2cccc(Cl)c2c(=O)n1-c1cccc(NC(=O)Nc2ccccc2Cl)c1` (stereo not drawn) [Compound 156, 1-(3-(5-chloro-4-oxo-2-(1-(thiazolo[5,4-d]pyrimidin-7-yloxy)ethyl)quinazolin-3(4H)-yl)phenyl)-3-(2-chlorophenyl)urea], for which the IC50 at PI3Kδ amounted to 2 nM; at PI3Kγ it was 930 nM; on PI3Kβ, 41 nM.

For `C[C@H](Oc1ncnc2scnc12)c1nc2cccc(Cl)c2c(=O)n1-c1cccc(NC(=O)NCC2OCCO2)c1` [Compound 157, (S)-1-((1,3-dioxolan-2-yl)methyl)-3-(3-(5-chloro-4-oxo-2-(1-(thiazolo[5,4-d]pyrimidin-7-yloxy)ethyl)quinazolin-3(4H)-yl)phenyl)urea], the figures for the IC50 on PI3Kδ, at PI3Kγ and on PI3Kβ were 7 nM, 3100 nM and 25 nM, respectively.

Take `C[C@H](Oc1ncnc2scnc12)c1nc2cccc(Cl)c2c(=O)n1-c1cccc(NC(=O)NCCO)c1` [Compound 158, (S)-1-(3-(5-chloro-4-oxo-2-(1-(thiazolo[5,4-d]pyrimidin-7-yloxy)ethyl)quinazolin-3(4H)-yl)phenyl)-3-(2-hydroxyethyl)urea]: the IC50 on PI3Kδ stood at 4 nM; on PI3Kγ, 900 nM; on PI3Kβ it was 9 nM.

For `N#Cc1c(N)ncnc1N1CCC[C@H]1c1nc2cccc(Cl)c2c(=O)n1-c1cccc(NC(=O)NCC(F)(F)F)c1` [Compound 159, (S)-1-(3-(2-(1-(6-amino-5-cyanopyrimidin-4-yl)pyrrolidin-2-yl)-5-chloro-4-oxoquinazolin-3(4H)-yl)phenyl)-3-(2,2,2-trifluoroethyl)urea], the IC50 came to 33 nM at PI3Kδ, 5600 nM on PI3Kγ and 42 nM on PI3Kβ.

With `NC(=O)c1cc(F)cc(-n2c([C@@H](Nc3ncnc(N)c3Cl)C3CC3)nc3cccc(Cl)c3c2=O)c1` [Compound 160, (S)-3-(2-(((6-amino-5-chloropyrimidin-4-yl)amino)(cyclopropyl)methyl)-5-chloro-4-oxoquinazolin-3(4H)-yl)-5-fluorobenzamide], the IC50 at PI3Kδ was 66 nM; on PI3Kγ, above 10000 nM; at PI3Kβ, 2400 nM.

With `N#Cc1c(N)nc(N)nc1N[C@H](c1nc2cccc(Cl)c2c(=O)n1-c1cc(F)cc(C(N)=O)c1)C1CC1` [Compound 161, (S)-3-(5-chloro-2-(cyclopropyl((2,6-diamino-5-cyanopyrimidin-4-yl)amino)methyl)-4-oxoquinazolin-3(4H)-yl)-5-fluorobenzamide], the IC50 at PI3Kδ was 1 nM; on PI3Kγ, 70 nM; on PI3Kβ, 2 nM.

On to `NC(=O)c1cc(F)cc(-n2c([C@@H](Nc3nc(N)nc(N)c3Cl)C3CC3)nc3cccc(Cl)c3c2=O)c1` [Compound 162, (S)-3-(5-chloro-2-(cyclopropyl((2,6-diamino-5-chloropyrimidin-4-yl)amino)methyl)-4-oxoquinazolin-3(4H)-yl)-5-fluorobenzamide], for which the IC50 at PI3Kδ was determined as 1 nM; on PI3Kγ, 2600 nM; on PI3Kβ, 21 nM.

`NC(=O)c1cncc(-n2c([C@@H](Nc3nc(N)nc(N)c3Cl)C3CC3)nc3cccc(Cl)c3c2=O)c1` [Compound 163, (S)-5-(5-chloro-2-(cyclopropyl((2,6-diamino-5-chloropyrimidin-4-yl)amino)methyl)-4-oxoquinazolin-3(4H)-yl)nicotinamide]: the 50% inhibitory concentration (IC50) on PI3Kδ was 2 nM; on PI3Kγ it was 8200 nM; at PI3Kβ it was 11 nM.

With `N#Cc1c(N)nc(N)nc1N[C@H](c1nc2cccc(Cl)c2c(=O)n1-c1cncc(C(N)=O)c1)C1CC1` [Compound 164, (S)-5-(5-chloro-2-(cyclopropyl((2,6-diamino-5-cyanopyrimidin-4-yl)amino)methyl)-4-oxoquinazolin-3(4H)-yl)nicotinamide], the half-inhibitory concentration (IC50) at PI3Kδ is 1 nM; on PI3Kγ, 420 nM; at PI3Kβ, 2 nM.
